Laboratory results as given in ChEMBL document CHEMBL5518235, “Identification of Novel Series of Potent and Selective Relaxin Family Peptide Receptor 1 (RXFP1) Agonists” (J Med Chem, 2024).
The source made the active and inactive calls. No cut-off for these calls is given here.

Tests used:
[1] = biological target: T1, Relaxin receptor 1 (Homo sapiens) (UniProt Q9HBX9); assay: Agonist activity at human RXFP1 expressed in T-Rex-CHO-K1 cells assessed as stimulation of cAMP production by measuring maximal efficacy at 50 uM incubated for 45 mins by HTRF assay relative to control; type: functional, cell-based; conditions: filed as agonist
T1 sequence (whole entry): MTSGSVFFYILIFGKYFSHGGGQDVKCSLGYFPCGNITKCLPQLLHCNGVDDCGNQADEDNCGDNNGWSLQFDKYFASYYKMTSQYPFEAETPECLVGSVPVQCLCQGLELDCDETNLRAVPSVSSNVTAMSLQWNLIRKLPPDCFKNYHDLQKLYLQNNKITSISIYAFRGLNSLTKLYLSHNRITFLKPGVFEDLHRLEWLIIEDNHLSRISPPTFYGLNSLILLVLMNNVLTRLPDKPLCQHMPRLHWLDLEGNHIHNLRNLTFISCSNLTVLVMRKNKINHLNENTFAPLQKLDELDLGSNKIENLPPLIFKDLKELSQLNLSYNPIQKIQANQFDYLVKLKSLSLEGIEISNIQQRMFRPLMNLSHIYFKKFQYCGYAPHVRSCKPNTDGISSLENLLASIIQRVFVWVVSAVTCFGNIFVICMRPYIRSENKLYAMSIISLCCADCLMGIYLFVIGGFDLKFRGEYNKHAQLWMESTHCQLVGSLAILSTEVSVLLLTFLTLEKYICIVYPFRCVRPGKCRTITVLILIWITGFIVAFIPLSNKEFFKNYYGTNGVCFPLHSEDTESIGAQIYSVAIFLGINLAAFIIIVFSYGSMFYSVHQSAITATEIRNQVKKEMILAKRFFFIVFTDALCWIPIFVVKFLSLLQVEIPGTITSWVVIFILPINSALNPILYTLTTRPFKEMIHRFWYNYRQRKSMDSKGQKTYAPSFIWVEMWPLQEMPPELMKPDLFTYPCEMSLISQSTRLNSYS

[2] = biological target: T2, Relaxin receptor 1 (Rattus norvegicus) (UniProt Q6R6I6); assay: Agonist activity at rat RXFP1 expressed in T-Rex-CHO-K1 cells assessed as stimulation of cAMP production at 40 uM incubated for 45 mins by HTRF assay; type: functional, cell-based
T2 sequence (whole entry): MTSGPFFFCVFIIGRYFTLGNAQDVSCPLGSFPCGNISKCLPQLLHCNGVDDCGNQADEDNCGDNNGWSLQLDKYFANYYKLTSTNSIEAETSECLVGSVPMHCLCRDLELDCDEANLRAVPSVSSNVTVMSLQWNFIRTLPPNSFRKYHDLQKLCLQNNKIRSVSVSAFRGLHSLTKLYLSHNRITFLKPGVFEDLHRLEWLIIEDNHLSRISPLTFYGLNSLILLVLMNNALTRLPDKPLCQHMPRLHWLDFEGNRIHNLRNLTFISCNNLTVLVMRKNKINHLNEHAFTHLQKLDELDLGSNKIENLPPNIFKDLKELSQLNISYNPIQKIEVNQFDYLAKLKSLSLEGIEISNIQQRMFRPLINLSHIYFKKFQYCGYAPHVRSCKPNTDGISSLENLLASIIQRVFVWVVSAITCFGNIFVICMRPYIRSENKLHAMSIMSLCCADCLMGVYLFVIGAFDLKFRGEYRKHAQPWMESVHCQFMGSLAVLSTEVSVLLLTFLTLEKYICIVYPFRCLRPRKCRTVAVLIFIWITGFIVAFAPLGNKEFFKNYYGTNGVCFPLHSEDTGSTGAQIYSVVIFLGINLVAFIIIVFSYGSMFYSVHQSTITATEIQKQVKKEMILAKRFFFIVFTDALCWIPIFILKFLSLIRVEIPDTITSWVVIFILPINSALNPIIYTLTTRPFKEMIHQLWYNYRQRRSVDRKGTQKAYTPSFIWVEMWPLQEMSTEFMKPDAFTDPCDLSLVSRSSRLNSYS

Relaxin receptor 1 = biological target: T3, Relaxin receptor 1 (Homo sapiens, UniProt Q9HBX9); assay: (§1) Agonist activity at human RXFP1 expressed in T-Rex-CHO-K1 cells assessed as stimulation of cAMP production incubated for 45 mins by HTRF assay; type: functional, cell-based
T3 sequence (Q9HBX9 whole entry): T1 sequence (whole entry)

[3] = Lipophilicity, logD of the compound in 1-octanol and phosphate buffer at pH 7.4 incubated for 3 hrs by shake flask method based LC/MS/MS analysis; type: physicochemical; conditions: for logD at 3 h: 1-octanol/phosphate buffer, pH 7.4
[4] = Metabolic stability in human liver microsomes assessed as intrinsic clearance at 1 uM incubated for 30 mins in presence of NADPH by LC-MS/MS analysis; type: ADME, Microsome; conditions: for microsomal CLint at 1 µM: liver microsomes, read-out: CLH
[5] = Metabolic stability in human liver microsomes assessed as unbound intrinsic clearance at 1 uM incubated for 30 mins in presence of NADPH by LC-MS/MS analysis; type: ADME, Microsome; conditions: 0.5 h
[6] = Protein binding in rat plasma assessed as free fraction at 5 uM incubated for 18 hrs by equilibrium dialysis based LC-MS/MS analysis; type: ADME, cell-free
[7] = Metabolic stability in Han Wistar rat hepatocytes assessed as intrinsic clearance measured per 10^6 cells at 1 uM after 120 mins by LC-MS/MS analysis; type: ADME, cell-based, Hepatocyte; conditions: read-out: CLH
[8] = Metabolic stability in Han Wistar rat hepatocytes assessed as unbound intrinsic clearance measured per 10^6 cells at 1 uM after 120 mins by LC-MS/MS analysis; type: ADME, cell-based, Hepatocyte; conditions: 2 h
[9] = Volume of distribution at steady state in Han Wistar rat at 0.76 micromol/kg, iv by LC-MS/MS analysis; type: ADME, organism-based; conditions: in vivo, dose 0.76 µmol/kg, read-out: Vdss
[10] = Clearance in Han Wistar rat at 0.76 micromol/kg, iv by LC-MS/MS analysis; type: ADME, organism-based; conditions: in vivo, dose 0.76 µmol/kg
[11] = Half-life in Han Wistar rat at 0.76 micromol/kg, iv by LC-MS/MS analysis; type: ADME, organism-based; conditions: in vivo, dose 0.76 µmol/kg
[12] = Metabolic stability in cryopreserved human hepatocytes assessed as intrinsic clearance measured per 10^6 cells at 1 uM after 120 mins by LC-MS/MS analysis; type: ADME, cell-based, Hepatocyte; conditions: cryopreserved hepatocytes, read-out: CLH
[13] = Metabolic stability in cryopreserved human hepatocytes assessed as unbound intrinsic clearance measured per 10^6 cells at 1 uM measured after 120 mins by LC-MS/MS analysis; type: ADME, cell-based, Hepatocyte; conditions: 2 h
[14] = biological target: T1, Relaxin receptor 1 (Homo sapiens); assay: Displacement of [125I]relaxin H2 from human RXFP1 expressed in CHO cells incubated for 90 mins by radioligand binding assay; type: cell-based
[15] = biological target: T1, Relaxin receptor 1 (Homo sapiens); assay: Agonist activity at human RXFP1 expressed in T-Rex-CHO-K1 cells assessed as stimulation of cAMP production at 50 uM incubated for 45 mins by HTRF assay relative to control; type: functional, cell-based; conditions: filed as agonist
[16] = biological target: T1, Relaxin receptor 1 (Homo sapiens); assay: as §1; type: functional, cell-based

Compound	Emax [1] [%]	EC50 (Relaxin receptor 1) [nM]	logD at 3 h [3]	microsomal CLint at 1 µM [4] [µL/min/mg]	CL free [5]	hepatocyte CLint at 1 µM [12] [µL/min/1e6 cells]	CL free [13]	other results
COc1cc(F)c(-c2ccc(C(=O)O)cc2)cc1C(=O)N[C@H]1[C@@H](C(=O)Nc2cccc(S(=O)(=O)C(F)(F)F)c2)[C@@H]2C=C[C@H]1C2 (racemic) [listing 1 of 2 here]	92							Activity [2]: inactive
COc1cc(F)c(-c2ccc(C(=O)O)cc2)cc1C(=O)N[C@H]1[C@@H](C(=O)Nc2cccc(S(=O)(=O)C(F)(F)F)c2)[C@@H]2C=C[C@H]1C2 (racemic) [listing 2 of 2 here]		200	3.4	6.3	121 µL/min/mg			fraction unbound at 18 h, 5 µM [6]: 0.0031; hepatocyte CLint at 1 µM [7]: 16 µL/min/1e6 cells; CL free [8]: 457 µL/min; Vd [9]: 0.92 L/kg; clearance [10]: 73 mL/min/kg; half-life [11]: 22.2 min
COc1cc(F)c(O[C@H]2CC[C@@H](C(=O)O)CC2)cc1C(=O)N[C@H]1[C@@H](C(=O)Nc2ccc(F)c(C(F)(F)F)c2)[C@@H]2C=C[C@H]1C2	124	15.8	3.55			7.7	175 µL/min	Activity [14]: inactive
COc1cc(F)c(-c2ccc(C(=O)O)cc2)cc1C(=O)Nc1ccccc1C(=O)Nc1cccc(S(=O)(=O)C(F)(F)F)c1	115	200	> 3.9	< 3	< 333 µL/min/mg	11	3.9 10^3uL/min	
O=C(O)c1ccc(-c2cc(C(=O)N[C@H]3[C@@H](C(=O)Nc4cccc(S(=O)(=O)C(F)(F)F)c4)[C@@H]4C=C[C@H]3C4)ccc2F)cc1 (racemic)		> 50100						Activity [15]: 57%
COc1ccccc1C(=O)Nc1ccccc1C(=O)Nc1cccc(S(=O)(=O)C(F)(F)F)c1	153	3160	> 4	12	3.7 10^3uL/min/mg	6.7	0.96 10^3uL/min	
COc1cc(F)c(-c2cccc(C(=O)O)c2)cc1C(=O)N[C@H]1[C@@H](C(=O)Nc2cccc(S(=O)(=O)C(F)(F)F)c2)[C@@H]2C=C[C@H]1C2	103	158	3.7	< 3	< 64 µL/min/mg	5.4	277 µL/min	
COc1cc(F)c(-c2ccc(C(=O)O)cc2)cc1C(=O)N[C@@H]1[C@H]2CC[C@H](C2)[C@@H]1C(=O)Nc1cccc(S(=O)(=O)C(F)(F)F)c1	103	158	3.6	16	314 µL/min/mg	32	1.3 10^3uL/min	
COc1ccccc1C(=O)N[C@H]1CN(C)C[C@H]1C(=O)Nc1cccc(S(=O)(=O)C(F)(F)F)c1 (racemic)			3.5	173	0.98 10^3uL/min/mg			Activity [16]: inactive
COc1cc(F)c(-c2ccc(CC(=O)O)cc2)cc1C(=O)N[C@H]1[C@@H](C(=O)Nc2cccc(S(=O)(=O)C(F)(F)F)c2)[C@@H]2C=C[C@H]1C2 (racemic)	110	79.4	3.2	4.6	111 µL/min/mg	6.5	295 µL/min	
COc1ccccc1C(=O)N[C@@H]1CCCC[C@@H]1C(=O)Nc1cccc(S(=O)(=O)C(F)(F)F)c1 (racemic)			4.4	242	6.3 10^3uL/min/mg			Activity [16]: inactive
COc1cc(F)c(-c2ccc(C(=O)O)cc2)cc1C(=O)N[C@H]1[C@@H](C(=O)Nc2cccc(S(=O)(=O)C(F)(F)F)c2)[C@@H]2C=C[C@H]1C2		158			100 µL/min/mg	11.7	334 µL/min	logD ([3]; octanol/water, pH 7.4, 3 h, 3 h): 3.8; CLH ([4]; microsomes, 0.5 h, 1 µM): 7.2 µL/min/mg
COc1cc(F)c(-c2ccc(C(=O)O)cc2)cc1C(=O)N[C@@H]1[C@H](C(=O)Nc2cccc(S(=O)(=O)C(F)(F)F)c2)[C@H]2C=C[C@@H]1C2			3.8	9.9	150 µL/min/mg	9.2	484 µL/min	Activity [16]: inactive
COc1cc(F)c(-c2ccc(S(N)(=O)=O)cc2)cc1C(=O)N[C@@H]1[C@H]2CC[C@H](C2)[C@@H]1C(=O)Nc1cccc(S(=O)(=O)C(F)(F)F)c1	109	251	> 3.7	74	92000 µL/min/mg	18	7.8 10^3uL/min	
COc1cc(F)c(-c2ccc(C[C@H](C(=O)O)N(C)C)cc2)cc1C(=O)N[C@@H]1[C@H]2CC[C@H](C2)[C@@H]1C(=O)Nc1cccc(S(=O)(=O)C(F)(F)F)c1	105	200	3.7	28	1.1 10^3uL/min/mg			
COc1ccccc1C(=O)N[C@H]1[C@@H](C(=O)Nc2cccc(S(=O)(=O)C(F)(F)F)c2)[C@@H]2C=C[C@H]1C2	108	2510	4.4	44	> 29 10^3uL/min/mg	8.9	1.8 10^3uL/min	
